From patent publication US7326708B2, “Phosphoric acid salt of a dipeptidyl peptidase-IV inhibitor” (Merck & Co., Inc., priority 2003, dated 2008)

What was measured:
solubility in water = type: physicochemical
[1] = physical (crystal form) stability of the solid; type: physicochemical; conditions: for stability of the crystal form: ambient condition

| SMILES | solubility in water (in words) (solubility in water) | stability of the crystal form [1] | crystal form change on heating ([1]; heated to above 40° C. under very dry nitrogen flow) | solubility (solubility in water) [mg/mL] |
| --- | --- | --- | --- | --- |
| NC(CC(=O)N1CCn2c(nnc2C(F)(F)F)C1)Cc1cc(F)c(F)cc1F (stereo not drawn) [4-oxo-4-[3-(trifluoromethyl)-5,6-dihydro[1 ,2,4]triazolo[4,3-a]pyrazin-7(8H)-yl]-1-(2,4,5-trifluorophenyl) butan-2-amine] | high solubility in water |  |  |  |
| N[C@@H](CC(=O)N1CCn2c(nnc2C(F)(F)F)C1)Cc1cc(F)c(F)cc1F [(2R)-4-oxo-4-[3-(trifluoromethyl)-5,6-dihydro[1,2,4]triazolo[4,3-a]pyrazin-7(8H)-yl]-1-(2,4,5-trifluorophenyl)butan-2-amine dihydrogenphosphate monohydrate] | high solubility in water | stable under ambient condition | convert to dehydrated monohydrate | ~72 |
| N[C@@H](CC(=O)N1CCn2c(nnc2C(F)(F)F)C1)Cc1cc(F)c(F)cc1F.O=P(O)(O)O [Dehydrated monohydrate] |  | converted back to monohydrate |  |  |
